Data from patent US20220289746A1, “PYRROLIDINE DERIVATIVES” (Hoffmann-La Roche Inc., priority 2019, published 2022).

Key:
human M4 receptor [1] = biological target: T1, human M4 receptor (Homo sapiens, UniProt P08173); experiment: cAMP assay for M4 positive allosteric modulators (M4 PAM cAMP assay); type: cell-based; design: expressed in transfected cells; host or cells: CHO-K1; conditions: Table 1; CHO-K1 cells expressing human M4; forskolin 7.5 μM + acetylcholine EC20 (0.2 nM)
T1 sequence (P08173 1-479): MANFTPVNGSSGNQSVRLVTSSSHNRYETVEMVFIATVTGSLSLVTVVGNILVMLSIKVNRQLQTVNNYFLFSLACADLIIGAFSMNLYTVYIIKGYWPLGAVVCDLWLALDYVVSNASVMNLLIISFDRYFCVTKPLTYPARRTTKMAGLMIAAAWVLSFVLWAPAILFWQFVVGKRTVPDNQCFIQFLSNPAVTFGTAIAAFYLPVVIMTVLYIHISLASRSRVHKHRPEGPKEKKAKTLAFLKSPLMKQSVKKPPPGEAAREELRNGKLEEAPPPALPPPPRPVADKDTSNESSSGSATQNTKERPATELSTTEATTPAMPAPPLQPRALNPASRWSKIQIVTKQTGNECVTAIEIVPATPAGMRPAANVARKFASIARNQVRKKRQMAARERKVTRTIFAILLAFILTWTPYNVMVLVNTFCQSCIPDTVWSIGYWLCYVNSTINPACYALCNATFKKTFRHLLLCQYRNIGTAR
Description: The potency of M4 PAMs was determined using a cell-based cyclic adenosine monophosphate assay. The assay was performed with CHO-Kl cells stably expressing untagged human M4 receptor and cAMP was quantified using the Nano-TRF Detection Assay kit (Roche, Cat. No. 05214386) as described in the kit instructions. The cells were grown in Ham's F-12 Nutrient mix supplemented with 10% FBS and 200 μg/ml geneticin until they reached 80% confluency. The cells were washed with PBS, detached with accutase and resuspended in assay buffer consisting of HBSS and 0.1% BSA. They were then seeded in black 384-well plates (Corning, Cat. No. 3764) at a density of 20,000 cells/20 μl per well until the addition of compounds.
Test compounds were serially diluted 1:2 in 100% DMSO and spotted in 384-well plates at 0.5 μl/well. The compounds were then diluted in water containing IBMX (Sigma, Cat. No. 17018) and a sample (5 μl) was added to the cells for 15 minutes at 37° C./5% CO2. After this incubation the cells were stimulated with a combination of forskolin (7.5 μM) and acetylcholine EC20 (0.2 nM) in assay buffer for 30 minutes at 37° C./5% CO2. The assay was stopped by adding cAMP detection mix (15 μl/well, containing detergents for cell lysis) for one hour at RT.
The test plates were read using a SpectraMax i3x reader (Molecular Devices). The exported raw data was used to calculate the FRET signal based on the P-factor as per cAMP kit instructions. The data was normalized to the activity of acetylcholine plus forskolin, with 2 nM of acetylcholine plus 7.5 μM forskolin defined as 100% activity. Dose response curves were fitted to the percent activity data of the compounds using a sigmoidal dose response model (XLfit, IDBS) and the data were reported as EC50 and percent efficacy.

human M4 receptor [2] = biological target: T1, human M4 receptor; experiment: Calcium flux assay using fluorescent imaging (M4 PAM FLIPR assay); type: cell-based; design: expressed in transfected cells; host or cells: CHO (monoclonal line, clone 2); conditions: Table 1; CHO cells expressing human M4+Gqi5; acetylcholine EC20
Description: CHO cells were transfected with expression plasmid encoding the human M4 receptor and a Gqi5 construct to redirect Gi signaling to calcium. Stable cells were cloned by limiting dilution to yield a monoclonal cell line expressing human M4+Gqi5 (clone 2). The stable cells were grown in DMEM containing 10% FBS, 200 ug/ml Geneticin and 800 ug/ml Hygromycin at 37° C. in a 10% CO2 incubator at 95% humidity.
Calcium Flux Assay Using Fluorescent Imaging (“M4 PAM FLIPR” Assay)
On the afternoon before the assay, cells were plated at a density of 50,000 cells/well into black 96 well plates with clear bottoms to yield a confluent monolayer the next day. Hanks balanced salt solution, without phenol red, containing 20 mM HEPES (pH 7.3) and 2.5 mM probenecid (assay buffer) was prepared fresh for each experiment. Compound dilutions were made using a Beckman Biomek 2000 laboratory automation workstation, in assay buffer. The dye-loading buffer consisted of a final concentration of 2 μM Fluo-4-AM (dissolved in DMSO and pluronic acid) and 65 μg/ml amidoblack in assay buffer. The existing culture media was removed from the wells and 100 μl of the dye-loading buffer was added to each well and incubated for approximately 90 min at 37° C. in a 5% CO2 incubator at 95% humidity.
Calcium flux in the dye-loaded cells was measured with the fluorescence reader Hamamatsu FDSS 7000. To test compounds as agonists, compound addition (25 μl) was made 10 s into the fluorescent measurements and fluorescent response was recorded for 3 minutes. The fluorescence data was expressed as percentage of the fluorescence obtained by an EC100 concentration (3 μM) of the endogenous full agonist acetylcholine. Each test compound concentration-response curve was constructed using a four parameter logistic equation in Microsoft Excel XLFit as follows:
Y=Minimum+((Maximum−Minimum)/(1+10^(LogEC50−X)nH)).
The concentration of agonist that produced a half-maximal response is represented by the EC50 value. Maximum and minimum are the maximum and minimum fluorescence signal in % respectively. nH is the Hill slope.
To measure positive allosteric modulator activity 25 μl of an EC20 concentration of the endogenous agonist acetylcholine is added to the cells already pre-incubated with the test compound for 15 minutes.
The M4 PAM dose response is constructed using the agonist dose-response equation above. The concentration of PAM that produced a half-maximal response is represented by the EC50 value and the maximum signal measured is the PAM efficacy expressed in % of the EC100 (3 μM) acetylcholine response. • cAMP Assay for M4 Positive Allosteric Modulators (“M4 PAM cAMP” Assay)

Row | SMILES | EC50 (human M4 receptor [1]) [nM] | EC50 (human M4 receptor [2]) [nM]
1 | Cc1cnc(N2CC[C@@H](C(=O)N3Cc4nc(C)c(Cl)c(C)c4C3)C2)nc1 [Example 8, (3-chloro-2,4-dimethyl-5,7-dihydropyrrolo[3,4-b]pyridin-6-yl)-[(3R)-1-(5-methylpyrimidin-2-yl)pyrrolidin-3-yl]methanone] | 5270 | 2350
2 | Cc1nc2c(c(C)c1Cl)CN(C(=O)[C@@H]1CCN(c3ccnc(C#N)n3)C1)C2 [Example 24, 4-[(3R)-3-(3-chloro-2,4-dimethyl-5,7-dihydropyrrolo[3,4-b]pyridine-6-carbonyl)pyrrolidin-1-yl]pyrimidine-2-carbonitrile] | 164 | 235
3 | Cc1nc2c(c(C)c1Cl)CN(C(=O)[C@@H]1CCN(c3cncc(C4CC4)n3)C1)C2 [Example 43, (3-chloro-2,4-dimethyl-5,7-dihydropyrrolo[3,4-b]pyridin-6-yl)-[(3R)-1-(6-cyclopropylpyrazin-2-yl)pyrrolidin-3-yl]methanone] | 7290 | 1210
4 | Cc1nc2c(c(C)c1Cl)CN(C(=O)[C@@H]1CCN(c3ccncc3)C1)C2 [Example 3, (3-chloro-2,4-dimethyl-5,7-dihydropyrrolo[3,4-b]pyridin-6-yl)-[(3R)-1-(4-pyridyl)pyrrolidin-3-yl]methanone] | 769 | 489
5 | COc1cc(N2CC[C@@H](C(=O)N3Cc4nc(C)c(Cl)c(C)c4C3)C2)ncn1 [Example 29, (3-chloro-2,4-dimethyl-5,7-dihydropyrrolo[3,4-b]pyridin-6-yl)-[(3R)-1-(6-methoxypyrimidin-4-yl)pyrrolidin-3-yl]methanone] | 951 | 591
6 | Cc1nc2c(c(C)c1Cl)CN(C(=O)[C@@H]1CCN(c3cnc(N(C)C)nc3)C1)C2 [Example 36, (3-chloro-2,4-dimethyl-5,7-dihydropyrrolo[3,4-b]pyridin-6-yl)-[(3R)-1-[2-(dimethylamino)pyrimidin-5-yl]pyrrolidin-3-yl]methanone] | 1720 | 1800
7 | Cc1nc2c(c(C)c1Cl)CN(C(=O)[C@@H]1CCN(c3ccc(C(F)(F)F)nn3)C1)C2 [Example 41, (3-chloro-2,4-dimethyl-5,7-dihydropyrrolo[3,4-b]pyridin-6-yl)-[(3R)-1-[6-(trifluoromethyl)pyridazin-3-yl]pyrrolidin-3-yl]methanone] | 5120 | 2010
8 | Cc1nc2c(c(C)c1Cl)CN(C(=O)[C@@H]1CCN(c3nccc(C(F)(F)F)n3)C1)C2 [Example 50, (3-chloro-2,4-dimethyl-5,7-dihydropyrrolo[3,4-b]pyridin-6-yl)-[(3R)-1-[4-(trifluoromethyl)pyrimidin-2-yl]pyrrolidin-3-yl]methanone] | 4380 | 1820

Next, values leading:

Row | EC50 (human M4 receptor [1]) [nM] | EC50 (human M4 receptor [2]) [nM] | SMILES
9 | 3640 | 816 | Cc1nc2c(c(C)c1Cl)CN(C(=O)[C@@H]1CCN(c3cncc(C4CC4)c3)C1)C2 [Example 16, (3-chloro-2,4-dimethyl-5,7-dihydropyrrolo[3,4-b]pyridin-6-yl)-[(3R)-1-(5-cyclopropyl-3-pyridyl)pyrrolidin-3-yl]methanone]
10 | 2180 | 3520 | Cc1nc2c(c(C)c1Cl)CN(C(=O)[C@@H]1CCN(c3cncc(C(F)(F)F)c3)C1)C2 [Example 14, (3-chloro-2,4-dimethyl-5,7-dihydropyrrolo[3,4-b]pyridin-6-yl)-[(3R)-1-[5-(trifluoromethyl)-3-pyridyl]pyrrolidin-3-yl]methanone]
11 | 674 | 528 | Cc1ccncc1N1CC[C@@H](C(=O)N2Cc3nc(C)c(Cl)c(C)c3C2)C1 [Example 13, (3-chloro-2,4-dimethyl-5,7-dihydropyrrolo[3,4-b]pyridin-6-yl)-[(3R)-1-(4-methyl-3-pyridyl)pyrrolidin-3-yl]methanone]
12 | 1940 | 1950 | Cc1nc2c(c(C)c1Cl)CN(C(=O)[C@@H]1CCN(c3cnc(C(F)(F)F)nc3)C1)C2 [Example 32, (3-chloro-2,4-dimethyl-5,7-dihydropyrrolo[3,4-b]pyridin-6-yl)-[(3R)-1-[2-(trifluoromethyl)pyrimidin-5-yl]pyrrolidin-3-yl]methanone]
13 | 503 | 184 | COCc1nc2c(c(C)c1Cl)CN(C(=O)[C@@H]1CCN(c3cc(C)ncn3)C1)C2 [Example 53, [3-chloro-2-(methoxymethyl)-4-methyl-5,7-dihydropyrrolo[3,4-b]pyridin-6-yl]-[(3R)-1-(6-methylpyrimidin-4-yl)pyrrolidin-3-yl]methanone]
14 | 482 | 388 | Cc1ncc(N2CC[C@@H](C(=O)N3Cc4nc(C)c(Cl)c(C)c4C3)C2)cn1 [Example 31, (3-chloro-2,4-dimethyl-5,7-dihydropyrrolo[3,4-b]pyridin-6-yl)-[(3R)-1-(2-methylpyrimidin-5-yl)pyrrolidin-3-yl]methanone]
15 | 259 | 350 | Cc1nc2c(c(C)c1Cl)CN(C(=O)[C@@H]1CCN(c3cc(C4CC4)ncn3)C1)C2 [Example 28, (3-chloro-2,4-dimethyl-5,7-dihydropyrrolo[3,4-b]pyridin-6-yl)-[(3R)-1-(6-cyclopropylpyrimidin-4-yl)pyrrolidin-3-yl]methanone]
16 | 881 | 209 | COCc1nc2c(c(C)c1Cl)CN(C(=O)[C@@H]1CCN(c3ccnnc3)C1)C2 [Example 59, [3-chloro-2-(methoxymethyl)-4-methyl-5,7-dihydropyrrolo[3,4-b]pyridin-6-yl]-[(3R)-1-pyridazin-4-ylpyrrolidin-3-yl]methanone]
17 | 8130 | 2200 | COc1ccnc(N2CC[C@@H](C(=O)N3Cc4nc(C)c(Cl)c(C)c4C3)C2)n1 [Example 48, (3-chloro-2,4-dimethyl-5,7-dihydropyrrolo[3,4-b]pyridin-6-yl)-[(3R)-1-(4-methoxypyrimidin-2-yl)pyrrolidin-3-yl]methanone]
18 | 131 | 550 | Cc1nc2c(c(C)c1Cl)CN(C(=O)[C@@H]1CCN(c3ccnc(C(F)(F)F)c3)C1)C2 [Example 21, (3-chloro-2,4-dimethyl-5,7-dihydropyrrolo[3,4-b]pyridin-6-yl)-[(3R)-1-[2-(trifluoromethyl)-4-pyridyl]pyrrolidin-3-yl]methanone]
